Where two headings read alike, the source gives them in different places.
Key:
JAK2 = biological target: T1, JAK2 (Homo sapiens, UniProt O60674); experiment: Biochemical JAK2 kinase assay (LanthaScreen); settings: for Ki: read-out: JAK 2 (pKi) (converted)
T1 construct: GST; purchased Life Technologies
Procedure, shortened: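 GST-tagged recombinant JAK2 pre-incubated 1 h at ambient temperature with compound and GFP-STAT1 peptide in HEPES pH 7.5/MgCl2 buffer, then ATP added for a 1 h reaction with 1% DMSO. TR-FRET read after EDTA and Tb-anti-pSTAT1 (pTyr701) addition; IC50 from 4-parameter fit, converted to pKi by Cheng-Prusoff.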

[1] = test system: IL-2 stimulated pSTAT5 in Tall-1 T cells; experiment: Cellular JAK3 potency assay: inhibition of IL-2 stimulated pSTAT5 in Tall-1 T cells; type: cell-based, human; settings: for IC50: Homo sapiens, read-out: Tall-1 (pIC50) (converted)
Procedure, shortened: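 Tall-1 human T cells (45,000/well) in phenol red-free DMEM with 10% FBS were preincubated with compound 1 h at 37 °C, then stimulated with IL-2 (final 300 ng/ml) for 30 min. Lysate pSTAT5 read by AlphaLisa; IC50 from inhibition curves, reported as pIC50 (mean±SD).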

Tyk2 = biological target: T2, Tyk2 (Homo sapiens, UniProt P29597); experiment: Biochemical Tyk2 kinase assay (LanthaScreen); settings: for Ki: read-out: Tyk 2 (pKi) (converted)
T2 construct: GST; purchased Life Technologies
Procedure, shortened: (§1)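 GST-tagged JAK enzyme and GFP-STAT1 peptide preincubated with compound 1 h, then ATP added; 1 h kinase reaction at ambient temperature, pH 7.5 HEPES/MgCl2 buffer, 1% DMSO. Tb-anti-pSTAT1 (pTyr701) TR-FRET, 520/495 nm ratio; IC50 from 4-parameter fit, converted to pKi via Cheng-Prusoff.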

JAK1 = biological target: T3, JAK1 (Homo sapiens, UniProt P23458); experiment: Biochemical JAK1 kinase assay (LanthaScreen); settings: for Ki: read-out: JAK 1 (pKi) (converted)
T3 construct: GST; purchased Life Technologies
Procedure, shortened: as §1

JAK3 = biological target: T4, JAK3 (Homo sapiens, UniProt P52333); experiment: Biochemical JAK3 kinase assay (LanthaScreen); design: GST; purchased Life Technologies; settings: for Ki: read-out: JAK 3 (pKi) (converted)
T4 sequence (P52333 1-1124): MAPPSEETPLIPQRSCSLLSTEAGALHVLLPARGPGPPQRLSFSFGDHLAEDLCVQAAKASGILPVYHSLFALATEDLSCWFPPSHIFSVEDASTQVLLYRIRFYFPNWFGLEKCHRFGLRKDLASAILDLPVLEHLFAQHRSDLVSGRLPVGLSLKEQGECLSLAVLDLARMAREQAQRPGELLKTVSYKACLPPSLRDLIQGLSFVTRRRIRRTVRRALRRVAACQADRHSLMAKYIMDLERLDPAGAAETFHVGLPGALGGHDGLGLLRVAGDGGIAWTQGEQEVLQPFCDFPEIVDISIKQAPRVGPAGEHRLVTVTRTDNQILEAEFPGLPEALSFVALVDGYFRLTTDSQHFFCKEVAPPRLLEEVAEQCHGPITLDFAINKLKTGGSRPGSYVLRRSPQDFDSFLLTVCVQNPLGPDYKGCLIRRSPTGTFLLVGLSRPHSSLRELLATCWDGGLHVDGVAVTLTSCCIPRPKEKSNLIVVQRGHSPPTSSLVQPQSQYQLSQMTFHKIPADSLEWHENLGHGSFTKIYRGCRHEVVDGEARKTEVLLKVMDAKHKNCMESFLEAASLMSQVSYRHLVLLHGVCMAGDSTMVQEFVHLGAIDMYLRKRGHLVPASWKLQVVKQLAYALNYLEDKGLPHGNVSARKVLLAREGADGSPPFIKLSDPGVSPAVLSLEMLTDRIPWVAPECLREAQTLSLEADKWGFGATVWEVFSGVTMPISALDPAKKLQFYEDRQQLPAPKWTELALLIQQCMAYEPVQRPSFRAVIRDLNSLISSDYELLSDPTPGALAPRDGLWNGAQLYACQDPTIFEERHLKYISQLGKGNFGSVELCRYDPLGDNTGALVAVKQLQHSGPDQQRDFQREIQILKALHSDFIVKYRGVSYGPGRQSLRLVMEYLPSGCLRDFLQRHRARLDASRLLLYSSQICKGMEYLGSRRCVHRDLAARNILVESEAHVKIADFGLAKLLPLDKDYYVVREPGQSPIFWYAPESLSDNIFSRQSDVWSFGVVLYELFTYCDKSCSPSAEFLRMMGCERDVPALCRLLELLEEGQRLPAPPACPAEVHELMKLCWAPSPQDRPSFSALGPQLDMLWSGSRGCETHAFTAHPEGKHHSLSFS
Procedure, shortened: as §1

[2] = IL-2 stimulated pSTAT5 in Tall-1 T cells
[3] = selectivity: difference of pKi JAK3 and pKi JAK1
[4] = TALL-1, IL-2 stimulated pSTAT5 in Tall-1 T cells
[5] = selectivity JAK3 over JAK1, difference of pKi
[6] = IL-2 stimulated pSTAT5, Tall-1 T cells

T3 sequence (P23458 whole entry): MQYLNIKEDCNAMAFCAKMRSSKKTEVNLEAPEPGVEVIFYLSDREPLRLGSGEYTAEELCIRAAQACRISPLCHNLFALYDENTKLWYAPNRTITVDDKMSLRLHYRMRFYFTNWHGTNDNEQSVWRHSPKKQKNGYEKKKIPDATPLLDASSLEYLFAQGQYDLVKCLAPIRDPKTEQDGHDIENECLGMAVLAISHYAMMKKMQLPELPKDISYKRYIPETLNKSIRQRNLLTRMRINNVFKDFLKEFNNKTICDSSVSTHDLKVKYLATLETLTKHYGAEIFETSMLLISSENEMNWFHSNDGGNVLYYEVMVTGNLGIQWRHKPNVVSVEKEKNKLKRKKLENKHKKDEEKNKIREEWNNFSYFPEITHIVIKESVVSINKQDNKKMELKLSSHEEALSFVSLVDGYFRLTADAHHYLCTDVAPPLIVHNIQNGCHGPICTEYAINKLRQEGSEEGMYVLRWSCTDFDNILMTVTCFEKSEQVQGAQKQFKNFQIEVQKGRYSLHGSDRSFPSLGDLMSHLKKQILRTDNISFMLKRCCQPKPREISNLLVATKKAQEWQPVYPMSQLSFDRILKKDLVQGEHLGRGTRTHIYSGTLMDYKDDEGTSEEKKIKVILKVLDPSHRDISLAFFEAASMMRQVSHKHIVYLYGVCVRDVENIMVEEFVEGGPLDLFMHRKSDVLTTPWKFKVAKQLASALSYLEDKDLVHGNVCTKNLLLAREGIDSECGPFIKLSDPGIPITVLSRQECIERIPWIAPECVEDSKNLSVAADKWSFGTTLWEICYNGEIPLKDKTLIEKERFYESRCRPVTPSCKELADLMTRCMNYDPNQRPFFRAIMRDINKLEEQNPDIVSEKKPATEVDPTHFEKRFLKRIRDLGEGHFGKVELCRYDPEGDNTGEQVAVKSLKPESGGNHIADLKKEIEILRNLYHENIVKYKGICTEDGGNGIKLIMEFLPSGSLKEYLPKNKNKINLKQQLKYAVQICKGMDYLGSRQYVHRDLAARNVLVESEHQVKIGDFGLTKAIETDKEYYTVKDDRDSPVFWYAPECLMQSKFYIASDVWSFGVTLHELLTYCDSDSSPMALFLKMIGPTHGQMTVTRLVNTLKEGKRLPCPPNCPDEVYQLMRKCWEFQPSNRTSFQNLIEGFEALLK
T1 sequence (O60674 whole entry): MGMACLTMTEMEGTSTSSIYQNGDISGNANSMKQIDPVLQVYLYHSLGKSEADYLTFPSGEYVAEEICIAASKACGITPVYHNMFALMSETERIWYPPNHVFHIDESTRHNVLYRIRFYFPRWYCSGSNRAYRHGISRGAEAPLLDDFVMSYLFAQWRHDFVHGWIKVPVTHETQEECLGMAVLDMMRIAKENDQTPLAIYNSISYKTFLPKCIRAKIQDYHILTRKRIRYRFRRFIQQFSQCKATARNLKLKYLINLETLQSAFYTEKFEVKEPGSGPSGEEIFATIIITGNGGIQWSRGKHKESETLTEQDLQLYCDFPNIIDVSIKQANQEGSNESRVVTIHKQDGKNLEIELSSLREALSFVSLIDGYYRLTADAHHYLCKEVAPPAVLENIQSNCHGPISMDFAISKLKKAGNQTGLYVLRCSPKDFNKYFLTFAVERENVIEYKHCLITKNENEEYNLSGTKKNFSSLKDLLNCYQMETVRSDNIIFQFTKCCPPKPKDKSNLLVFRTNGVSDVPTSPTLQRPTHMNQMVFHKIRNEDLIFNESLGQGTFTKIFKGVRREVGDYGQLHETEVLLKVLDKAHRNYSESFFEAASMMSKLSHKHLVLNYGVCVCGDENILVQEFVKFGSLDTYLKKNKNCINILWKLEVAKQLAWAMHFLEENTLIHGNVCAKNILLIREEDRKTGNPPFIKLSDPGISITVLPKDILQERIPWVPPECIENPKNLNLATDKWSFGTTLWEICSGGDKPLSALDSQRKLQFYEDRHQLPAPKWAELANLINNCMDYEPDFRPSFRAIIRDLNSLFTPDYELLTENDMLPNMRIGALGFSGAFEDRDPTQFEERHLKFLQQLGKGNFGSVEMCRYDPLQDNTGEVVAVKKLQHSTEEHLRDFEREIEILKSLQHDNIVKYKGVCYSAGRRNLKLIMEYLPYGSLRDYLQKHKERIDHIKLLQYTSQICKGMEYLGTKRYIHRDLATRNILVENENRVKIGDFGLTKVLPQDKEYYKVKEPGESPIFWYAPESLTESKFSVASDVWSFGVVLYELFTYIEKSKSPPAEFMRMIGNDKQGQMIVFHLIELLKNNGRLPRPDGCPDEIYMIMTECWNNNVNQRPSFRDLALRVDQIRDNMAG
T2 sequence (P29597 whole entry): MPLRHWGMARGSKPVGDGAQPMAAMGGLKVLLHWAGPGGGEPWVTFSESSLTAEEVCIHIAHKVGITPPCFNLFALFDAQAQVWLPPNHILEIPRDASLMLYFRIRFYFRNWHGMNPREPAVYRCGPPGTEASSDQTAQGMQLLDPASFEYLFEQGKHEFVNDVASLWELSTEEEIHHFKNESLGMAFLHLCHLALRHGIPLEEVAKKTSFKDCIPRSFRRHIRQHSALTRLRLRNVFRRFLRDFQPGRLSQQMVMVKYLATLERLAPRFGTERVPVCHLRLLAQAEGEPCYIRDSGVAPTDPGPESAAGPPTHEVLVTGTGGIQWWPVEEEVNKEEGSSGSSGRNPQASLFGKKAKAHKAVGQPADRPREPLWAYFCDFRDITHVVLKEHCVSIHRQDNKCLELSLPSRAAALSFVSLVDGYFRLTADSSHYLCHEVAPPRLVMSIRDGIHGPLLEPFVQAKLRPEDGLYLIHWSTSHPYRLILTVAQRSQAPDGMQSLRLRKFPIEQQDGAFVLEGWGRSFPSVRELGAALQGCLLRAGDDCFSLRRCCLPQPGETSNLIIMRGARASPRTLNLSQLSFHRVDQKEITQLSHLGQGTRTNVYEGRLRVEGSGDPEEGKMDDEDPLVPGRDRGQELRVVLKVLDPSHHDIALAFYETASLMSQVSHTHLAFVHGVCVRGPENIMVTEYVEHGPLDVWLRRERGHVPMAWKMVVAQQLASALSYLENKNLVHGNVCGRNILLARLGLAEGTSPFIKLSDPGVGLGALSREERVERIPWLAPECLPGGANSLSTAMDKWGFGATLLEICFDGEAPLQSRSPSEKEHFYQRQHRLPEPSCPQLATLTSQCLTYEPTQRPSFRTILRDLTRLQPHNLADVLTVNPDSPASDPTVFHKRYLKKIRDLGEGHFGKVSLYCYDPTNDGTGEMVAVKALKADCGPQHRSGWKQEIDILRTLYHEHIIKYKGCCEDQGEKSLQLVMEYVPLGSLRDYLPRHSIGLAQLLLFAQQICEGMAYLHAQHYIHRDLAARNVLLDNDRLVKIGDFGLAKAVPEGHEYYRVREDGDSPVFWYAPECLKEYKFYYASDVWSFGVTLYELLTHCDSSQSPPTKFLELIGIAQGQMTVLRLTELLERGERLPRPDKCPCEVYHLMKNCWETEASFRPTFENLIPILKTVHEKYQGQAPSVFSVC

Compound | JAK 2 (pKi) (JAK2) | Tall-1 (pIC50) [1, 2] | Tyk 2 (pKi) (Tyk2) | JAK 1 (pKi) (JAK1) | JAK 3 (pKi) (JAK3) | JAK3 (pKi)-JAK1 (pKi) (JAK3; [3]) | Ki (JAK2) | IC50 [1, 4] | Ki (Tyk2) | Ki (JAK1) | Ki (JAK3) | IC50 ([1]; TALL-1, IL-2 stimulated pSTAT5, Tall-1 T cells) | JAK3 (pKi)-JAK1 (pKi) (JAK3; [5]) | Tall-1 (pIC50) [1, 6]
C=CC(=O)N1CC(C)(COc2cc(-c3ccc(O)cc3)cc3[nH]ncc23)C1 [Compound 3-8] | E (a pKi value of 7 or below (Ki of 100 nM or above)) | A (a pIC50 value≥7.5 (IC50≤32 nM)) | E (a pKi value of 7 or below (Ki of 100 nM or above)) | E (a pKi value of 7 or below (Ki of 100 nM or above)) | B (a pKi value between 9 and 10 (Ki between 1 nM and 0.1 nM)) | A (a value of 3 or above) | – | – | – | – | – | – | – | –
C=CC(=O)N1CC[C@H](Oc2nc(-c3ccc(O)cc3)cc3[nH]nc(C)c23)C1 [Compound 1-34] | – | – | – | – | – | A (a value of 3 or above) | 10 to 100 nM | < 31.6 nM | > 100 nM | > 100 nM | 0.1 to 1 nM | – | – | –
C=CC(=O)N1CC(COc2cc(-c3ccc(O)c(Cl)c3)cc3[nH]ncc23)(OC)C1 [Compound 3-73] | E (a pKi value of 7 or below (Ki of 100 nM or above)) | A (a pIC50 value≥7.5 (IC50≤32 nM)) | E (a pKi value of 7 or below (Ki of 100 nM or above)) | E (a pKi value of 7 or below (Ki of 100 nM or above)) | A (a pKi value≥10 (Ki≤0.1 nM)) | A (a value of 3 or above) | – | – | – | – | – | – | – | –
CN(C)C/C=C/C(=O)N1CC[C@H](COc2cc(-c3ccc(O)c(Cl)c3)cc3[nH]ncc23)C1 [Compound 2-2] | D (a pKi value between 7 and 8 (Ki between 100 nM and 10 nM)) | B (a pIC50 value between 6.7 (included) and 7.5 (IC50 between 200 nM and 32 nM)) | E (a pKi value of 7 or below (Ki of 100 nM or above)) | E (a pKi value of 7 or below (Ki of 100 nM or above)) | B (a pKi value between 9 and 10 (Ki between 1 nM and 0.1 nM)) | A (a value of 3 or above) | – | – | – | – | – | – | – | –
CCC1(COc2nc(-c3ccc(O)c(Cl)c3)cc3[nH]ncc23)CN(C(=O)/C=C/CN(C)C)C1 [Compound 3-99] | E (a pKi value of 7 or below (Ki of 100 nM or above)) | A (a pIC50 value≥7.5 (IC50≤32 nM)) | E (a pKi value of 7 or below (Ki of 100 nM or above)) | E (a pKi value of 7 or below (Ki of 100 nM or above)) | A (a pKi value≥10 (Ki≤0.1 nM)) | A (a value of 3 or above) | – | – | – | – | – | – | – | –
C=CC(=O)N1CC(C#N)(COc2nc(-c3ccc(O)c(F)c3)cc3[nH]ncc23)C1 [Compound 3-108] | D (a pKi value between 7 and 8 (Ki between 100 nM and 10 nM)) | A (a pIC50 value≥7.5 (IC50≤32 nM)) | E (a pKi value of 7 or below (Ki of 100 nM or above)) | E (a pKi value of 7 or below (Ki of 100 nM or above)) | A (a pKi value≥10 (Ki≤0.1 nM)) | A (a value of 3 or above) | – | – | – | – | – | – | – | –
COCCN(C/C=C/C(=O)N1CC(COc2cc(-c3ccc(O)cc3)cc3[nH]ncc23)C1)CCOC [Compound 3-120] | – | – | – | – | – | A (a value of 3 or above) | 10 to 100 nM | 31.6 to 200 nM | > 100 nM | > 100 nM | < 0.1 nM | – | – | –
C=CC(=O)N1CC(COc2cc(-c3ccc(O)c(F)c3)nc3[nH]ncc23)C1 [Compound 3-87] | – | – | – | – | – | A (a value of 3 or above) | > 100 nM | 31.6 to 200 nM | > 100 nM | > 100 nM | 0.1 to 1 nM | – | – | –
C=CC(=O)N1CC(C#N)(COc2nc(-c3ccc(O)c(Cl)c3)cc3[nH]ncc23)C1 [Compound 3-107] | E (a pKi value of 7 or below (Ki of 100 nM or above)) | A (a pIC50 value≥7.5 (IC50≤32 nM)) | E (a pKi value of 7 or below (Ki of 100 nM or above)) | E (a pKi value of 7 or below (Ki of 100 nM or above)) | A (a pKi value≥10 (Ki≤0.1 nM)) | A (a value of 3 or above) | – | – | – | – | – | – | – | –
C=CC(=O)N1CC2(CCC2Oc2cc(-c3ccc(O)cc3)cc3[nH]ncc23)C1 (stereo not drawn) [Compound 12-54] | – | – | – | – | – | – | 10 to 100 nM | – | > 100 nM | > 100 nM | 0.1 to 1 nM | < 31.6 nM | B (a value of 2.3 to 3) | –
CN1CCC[C@@H]1/C=C/C(=O)N1CC(COc2cc(-c3ccc(O)cc3)cc3[nH]ncc23)C1 [Compound 3-85] | – | – | – | – | – | A (a value of 3 or above) | 10 to 100 nM | < 31.6 nM | > 100 nM | > 100 nM | < 0.1 nM | – | – | –
C=CC(=O)N1CC(COc2cc(-c3ccc(O)cc3)cc3[nH]nnc23)C1 [Compound 17-1] | E (a pKi value of 7 or below (Ki of 100 nM or above)) | – | E (a pKi value of 7 or below (Ki of 100 nM or above)) | E (a pKi value of 7 or below (Ki of 100 nM or above)) | B (a pKi value between 9 and 10 (Ki between 1 nM and 0.1 nM)) | – | – | – | – | – | – | – | A (a value of 3 or above) | B (a pIC50 value between 6.7 (included) and 7.5 (IC50 between 200 nM and 32 nM))
C=CC(=O)N1CC2(CC(Oc3nc(-c4ccc(O)cc4)cc4[nH]ncc34)C2)C1 [Compound 15-7] | D (a pKi value between 7 and 8 (Ki between 100 nM and 10 nM)) | – | E (a pKi value of 7 or below (Ki of 100 nM or above)) | E (a pKi value of 7 or below (Ki of 100 nM or above)) | B (a pKi value between 9 and 10 (Ki between 1 nM and 0.1 nM)) | – | – | – | – | – | – | – | B (a value of 2.3 to 3) | A (a pIC50 value≥7.5 (IC50≤32 nM))
CN(C)C/C=C\C(=O)N1CC(COc2cc(-c3ccc(O)c(Cl)c3)cc3[nH]ncc23)C1 [Compound 3-122] | – | – | – | – | – | A (a value of 3 or above) | 10 to 100 nM | < 31.6 nM | > 100 nM | > 100 nM | < 0.1 nM | – | – | –

Source: patent US10392368B2, “Pyrazolo and triazolo bicyclic compounds as JAK kinase inhibitors” (THERAVANCE BIOPHARMA R&D IP, LLC, priority 2017, dated 2019)
